How the values were obtained:
[1] = Stability/degradation in aqueous citric acid or citrate buffer under heat, followed by HPLC; assay type: physicochemical
Experimental: […] reactions were set up under identical conditions as in Example 3 except for temperatures: 43° C., 65° C., 75° C., 85° C., and 90° C. reactions were set up and followed by HPLC-MS or UV (210 nm) detection.
Two studies were performed on the pH dependency of the synthesis of iso-rebaudioside A (Cmpd X) from rebaudioside A (Reb A). Rebaudioside A was dissolved at the same concentration in a series of aqueous citric acid solutions, each having a different pH. The solutions were heated to 43° C. for 11 weeks. One study was performed with solutions at pH 2.0, 4.0, and 7.0. The other study was performed with solutions at pH 2.5, 3.0, and 3.5. Results of the two studies are shown in FIGS. 17 and 18, respectively, wherein Reb A stands for rebaudioside A and Cmpd X stands for iso-rebaudioside A. In FIG. 17, the concentration of iso-rebaudioside A at pH 2 peaks at week 9 and decreases afterwards.

[2] = Sweetness tasting by a panel of five people, compared with sucrose solution
Experimental: Iso-rebaudioside A from the x-ray crystallography sample of Example 3 was dissolved in water at a concentration of 1000 ppm, and was found by a panel of five people to have a sweetness intensity similar to that of a 7% sucrose solution; therefore its sweetness potency was estimated to be 70 times that of sucrose.

[3] = cited from earlier work; for stability under acidic conditions at 60° C.: pH 2.4 to 2.6, 60° C.; for stability under acidic conditions at 100° C.: pH 2.4 to 2.6, 100° C., yields hydrolysis byproducts

SMILES	degradation in acidic solution ([1]; pH 2)	time of peak concentration before decrease (degradation) ([1]; pH 2) [week]	sweetness intensity, equivalent sucrose solution ([2]; 1000 ppm in water, panel of five people) [% sucrose solution]	sweetness potency relative to sucrose ([2]; estimated from 1000 ppm vs 7% sucrose)	stability under acidic conditions at 60° C. [3]	stability under acidic conditions at 100° C. [3]	degradation in acidic solution ([1]; aqueous citric acid pH 2, 43° C., after week 9)	hydrolysis at elevated temperatures ([1]; citrate buffer pH 2, 43° C. to 90° C., HPLC-MS)
CC1=CC23CCC4C(C)(C(=O)OC5OC(CO)C(O)C(O)C5O)CCCC4(C)C2CCC1(OC1OC(CO)C(O)C(OC2OC(CO)C(O)C(O)C2O)C1OC1OC(CO)C(O)C(O)C1O)C3 (stereo not shown) [iso-rebaudioside A]	degraded/hydrolyzed into other steviol glycoside isomers	9	~7	70 times that of sucrose				
C=C1C[C@@]23CC[C@H]4[C@@](C)(CCC[C@@]4(C)C(=O)O[C@@H]4O[C@H](CO)[C@@H](O)[C@H](O)[C@H]4O)[C@@H]2CC[C@]1(O[C@@H]1O[C@H](CO)[C@@H](O)[C@H](O[C@@H]2O[C@H](CO)[C@@H](O)[C@H](O)[C@H]2O)[C@H]1O[C@@H]1O[C@H](CO)[C@@H](O)[C@H](O)[C@H]1O)C3 [rebaudioside A]					quite stable	undergo drastic changes	continues to decrease after week 9	extensive hydrolysis occurred
C=C1C[C@@]23CC[C@H]4[C@@](C)(CCC[C@@]4(C)C(=O)O[C@@H]4O[C@H](CO)[C@@H](O)[C@H](O)[C@H]4O)[C@@H]2CC[C@]1(O[C@@H]1O[C@H](CO)[C@@H](O)[C@H](O)[C@H]1O[C@@H]1O[C@H](CO)[C@@H](O)[C@H](O)[C@H]1O)C3 [stevioside]					quite stable	undergo drastic changes		

— patent US7964232B2, “Steviol glycoside isomers” (PepsiCo, Inc., priority 2007, dated 2011)
